Measurements as given in publication PMC7825173, “4’-O-Methylbroussochalcone B as a novel tubulin polymerization inhibitor suppressed the proliferation and migration of acute myeloid leukaemia cells” (BMC Cancer, 2021).
Each block holds one molecule with its values, some of them ahead of it.

Assays:
tubulin = experiment: Tubulin polymerization assay in vitro; format: biochemical; conditions: 2 mg/mL tubulin, 60 min, 37 °C; read-out: IC50, inhibition of tubulin polymerization
Method: An amount of 2 mg/mL tubulin was resuspended in PEM buffer, consisted of 80 mM PIPES (pH 6.9), 2 mM MgCl2, 0.5 mM EGTA, and 15% glycerol. 4′-O-Methylbroussochalcone B (1 μM, 3 μM and 6 μM) was preincubated on ice. The reaction was monitored by a spectrophotometer in absorbance at 340 nm at 37 °C.
The tubulin assembly assay measured the extent of assembly of 2 mg/mL tubulin after 60 min at 37 °C. Data are presented as mean from three independent experiments.
The tubulin assembly assay measured the extent of assembly of 2 mg/mL tubulin after 60 minutes at 37 °C. Data are presented as mean from three independent experiments.

GDM-1 cells = experiment: MTT antiproliferative assay, GDM-1 cells; format: cell-based, human; conditions: 72 h; for cell proliferation rate: 16 μM
Method: (§1) Cells were grown in a 5% CO2 incubator at 37 °C. We used trypsin to digest cells in logarithmic growth phase. Then, we plated the cells in 96-well plates at 5000 cells per well evenly. After cell adherence, chalcones were added in the 96-well plates for 48 h or 72 h. We added MTT reagent to each well and incubated for 2 h in the incubator. Finally, the absorbance value was measured at 490 nm after treatment with DMSO.

ML-2 cells [1] = experiment: Apoptosis assay (Annexin V-FITC/PI flow cytometry), ML-2 cells; format: cell-based, human; conditions: 48 h
Method: (§2) ML-2 cells and OCI-AML5 cells were seeded in 6-well culture plates and treated with certain concentration of 4′-O-Methylbroussochalcone B for 48 h. Cells were harvested and suspended in binding buffer containing Annexin V-FITC (0.5 mg/mL) and PI (0.5 mg/mL) then. After that, samples were incubated for 25 min in dark and analyzed with flow cytometry (Becton, Dickinson and Company, NJ).

CESS cells = experiment: MTT antiproliferative assay, CESS cells; format: cell-based, human; conditions: 72 h
Method: as §1

OCI-AML5 cells [2] = experiment: MTT antiproliferative assay, OCI-AML5 cells; format: cell-based, human; conditions: 72 h
Method: as §1

ML-2 cells [3] = experiment: Transwell migration assay, ML-2 cells; format: cell-based, human; conditions: 24 h
Method: (§3) The cells (100 μl, 1 × 10^6 cells/ml) were suspended in the medium which contained 0.1% FBS and plated to the upper chamber of the transwell. The lower wells were incubated with the addition of the medium (600 μl per well), which included CCL25 (100 ng/ml; Cedarlane Laboratories, Burlington, Canada) and 0.1% FBS. The cells were hatched for 24 h at 37 °C with 5% CO2. Finally, the cells in the lower chamber were counted under a light microscope.

ML-2 cells [4] = experiment: Cell cycle assay, ML-2 cells; format: cell-based, human; conditions: 2 μM and 4 μM, 48 h
Method: (§4) The samples of fixed cells were stained with 50 μg/ml Propidium iodide (PI, Sigma) in the dark for 30 min at room temperature, following the manufacturer’s protocol. Then the samples were tested by flow cytometer (Becton, Dickinson and Company, NJ). Data were analyzed via CellQuest software.

ML-2 cells [5] = experiment: MTT antiproliferative assay, ML-2 cells; format: cell-based, human; conditions: 72 h
Method: as §1

β-tubulin = experiment: Immunofluorescence staining of β-tubulin in ML-2 cells; format: cell-based, human; conditions: 1 μM and 2 μM, 24 h
Method: ML-2 cells were seeded into 6-well plates and then treated with 4′-O-Methylbroussochalcone B for 24 h. ML-2 cells were washed with phosphate buffer solution (PBS), and then fixed in 4% paraformaldehyde. After blocking for 0.5 h in 5% goat serum albumin, ML-2 cells were incubated with anti-β-tubulin for 2 h. Then, ML-2 cells were washed by PBS and labeled by 4, 6-diamidino-2-phenylindole.

OCI-AML5 cells [6] = experiment: Transwell migration assay, OCI-AML5 cells; format: cell-based, human; conditions: 24 h
Method: as §3

OCI-AML5 cells [7] = experiment: Apoptosis assay (Annexin V-FITC/PI flow cytometry), OCI-AML5 cells; format: cell-based, human; conditions: 48 h
Method: as §2

OCI-AML5 cells [8] = experiment: Cell cycle assay, OCI-AML5 cells; format: cell-based, human; conditions: 2 μM and 4 μM, 48 h
Method: as §4

[9] = system: colchicine binding site of β-tubulin; experiment: EBI competition assay in ML-2 cells; format: cell-based, human; conditions: preincubation at 10 μM, Western Blot
Method: ML-2 cells were seeded in 6-well plates for 24 h. 4′-O-Methylbroussochalcone B and colchicine treated them for 2 h respectively. Then, EBI were added. After 90 min, ML-2 cells were harvested to do Western Blot analysis. The signals were then visualized using chemiluminescent substrate (Zhengzhou research company, Zhengzhou, China).

IC50 (tubulin): 3.11 ± 0.1 µM
Molecule: CC1(C)C=Cc2cc(C(=O)/C=C/c3ccc(O)cc3)c(O)cc2O1 [Bavachromene]
cell proliferation rate (GDM-1 cells): 29.40%

IC50 (tubulin): 4.39 ± 0.26 µM
Molecule: CC1(C)CCc2c(ccc(C(=O)/C=C/c3ccc(O)cc3)c2O)O1 [Dorsmanin A]
cell proliferation rate (GDM-1 cells): 36.67%

IC50 (tubulin): 6.38 ± 0.12 µM
Molecule: CC(C)=CCc1c(O)ccc(C(=O)/C=C/c2ccc(O)cc2)c1O [Isobavachalcone]
cell proliferation rate (GDM-1 cells): 57.33%

IC50 (tubulin): 8.24 ± 0.74 µM
Molecule: CC1(C)C=Cc2c(ccc(C(=O)/C=C/c3ccc(O)cc3)c2O)O1 [Isobavachromene]
cell proliferation rate (GDM-1 cells): 69.00%

IC50 (tubulin): 2.86 µM | IC50 (OCI-AML5 cells [2]): 2.03 µM
Molecule: 4′-O-Methylbroussochalcone B
percentage of apoptotic cells (early and late phase) (ML-2 cells [1]; 2 μM): 13.68% | percentage of apoptotic cells (early and late phase) (ML-2 cells [1]; 4 μM): 55.04% | IC50 (CESS cells): 4.2 µM | cell migration (ML-2 cells [3]): evidently inhibited | cell cycle distribution (G2-M phase) (ML-2 cells [4]): arrested in the G2-M phase significantly | IC50 (ML-2 cells [5]): 1.16 µM | expression of β-tubulin (immunofluorescence) (β-tubulin): suppressed in a concentration-dependent manner | cell proliferation rate (GDM-1 cells): 8.14% | IC50 (GDM-1 cells): 3.57 µM | cell migration (OCI-AML5 cells [6]): evidently inhibited | apoptotic rate (OCI-AML5 cells [7]; 2 μM): 12.84% | apoptotic rate (OCI-AML5 cells [7]; 4 μM): 24.13% | cell cycle distribution (G2-M phase) (OCI-AML5 cells [8]): arrested in the G2-M phase significantly | formation of EBI: β-tubulin adduct [9]: prevented the formation of EBI: β-tubulin adduct

IC50 (tubulin): 5.13 ± 0.45 µM
Molecule: CC(C)=CCc1cc(C(=O)/C=C/c2ccc(O)cc2)c(O)cc1O [Broussochalcone B]
cell proliferation rate (GDM-1 cells): 29.67%
